Measurements published in patent US20240285634A1, “COMPOUND AND METHOD FOR TREATING CHEMOTHERAPY-ASSOCIATED GASTROINTESTINAL SIDE EFFECTS” (ONQUALITY PHARMACEUTICALS CHINA LTD., priority 2021, published 2024).

System: Chemotherapeutic agent-caused diarrhea models of Balb/c mice
Assay: Relieving effect on diarrhea caused by a chemotherapeutic agent (Examples 1-201)
Type: in vivo
Excerpt: Construction of mouse animal models: Chemotherapeutic agent-caused diarrhea models of Balb/c mice were constructed according to the administration mode and frequency of the chemotherapeutic agent as shown in Table 3. After administration for several days, mice developed different extents of diarrhea symptoms (as shown in FIG. 1), which were similar to the conditions in human. Thus, chemotherapeutic agent-caused diarrhea models of mice are very good models to mimic diarrhea in human caused by the chemotherapeutic agent.
Balb/c mice were fed for 1 week, and then divided into groups. The experiment was divided into a control group, a chemotherapeutic agent group, and a group of the compound as shown in Formula I, each of which comprised 10 mice, to perform the administration experiment, for which the administration dosage, mode, time and frequency were shown in Table 3. The control group: being injected or intragastrically administered with the same solvent as that used in the group of the compound as shown in Formula I (the injection mode and time were shown in Table 3), and then being injected or intragastrically administered with the same solvent as that used in the chemotherapeutic agent group (the administration mode was shown in Table 3); the chemotherapeutic agent group: being injected or intragastrically administered with the same solvent as that used in the group of the compound as shown in Formula I (the administration mode and time were shown in Table 3), and then being injected or intragastrically administered with the chemotherapeutic agent (the type, administration mode and dosage were shown in Table 3); the group of the compound as shown in Formula I: being injected or intragastrically administered with the compound as shown in Formula I (the administration mode and time were shown in Table 3), and then being administered with the chemotherapeutic agent (the administration mode and dosage were shown in Table 3).
The scoring of diarrhea can refer to the method of Akinobu Kurita (Cancer Chemother Pharmacol 2000; 46:211-20.), Grade 0: normal feces; Grade 1: mild diarrhea, the stools is slightly wet and soft; Grade 2: moderate diarrhea, loose stools and mild perianal contamination; Grade 3: severe diarrhea, watery stools and accompanied by severe perianal staining (see FIG. 1). It is regarded as effective remission when the diarrhea grading of mice in the group of the compound as shown in Formula I is reduced compared with the average diarrhea grading of mice in the chemotherapeutic agent group.
The diarrhea grading of mice was observed and recorded every day. At the end of the experiment, the number of mice in the group of the compound as shown in Formula I whose diarrhea grading was lower than that of mice in the chemotherapeutic agent group was recorded. Table 3 lists various animal experiment combinations of chemotherapeutic agents and the compound as shown in Formula I, as well as the corresponding experimental results. (Relative remission rate %=the number of mice in the group of the compound as shown in Formula I whose diarrhea has been effectively relieved/the total number of mice in the group of the compound as shown in Formula I*100%. The establishment rate of diarrhea model in the chemotherapeutic agent group was 50%-70%, that is, about 5-7 of 10 mice developed diarrhea during the experiment, and there were cases of individual mice death or not developing diarrhea.)

SMILES: CN1CCN(c2ccc(Nc3ncc4cc5n(c4n3)C3(CCCCC3)CNC5=O)nc2)CC1 [Compound I, Trilaciclib]
- Relative remission rate (Ex 111, Irinotecan (CPT-11) 240 mg/kg intraperitoneal single, compound 100 mg/kg intravenous single 48 h before, cycle 7 days): 0%
- Relative remission rate (Ex 118, Irinotecan (CPT-11) 300 mg/kg oral single, compound 100 mg/kg intraperitoneal single 12 h before, cycle 11 days): 50%
- Relative remission rate (Ex 119, Irinotecan (CPT-11) 250 mg/kg intramuscular single, compound 100 mg/kg intramuscular single 1 h before, cycle 7 days): 70%
- Relative remission rate (Ex 120, Irinotecan (CPT-11) 200 mg/kg intravenous single, compound 100 mg/kg intravenous single 0. h before, cycle 7 days): 70%
- Relative remission rate (Ex 121, Fluorouracil 100 + irinotecan 200 mg/kg intravenous single, compound 100 mg/kg intravenous single 0.5 h before, cycle 10 days): 70%
- Relative remission rate (Ex 122, Fluorouracil 100 + irinotecan 200 mg/kg intravenous single, compound 100 mg/kg intravenous single 4 h before, cycle 10 days): 40%
- Relative remission rate (Ex 123, Fluorouracil 100 + irinotecan 200 mg/kg intravenous single, compound 100 mg/kg intravenous single 8 h before, cycle 10 days): 50%
- Relative remission rate (Ex 124, Fluorouracil 100 + irinotecan 200 mg/kg intravenous single, compound 100 mg/kg intravenous single 12 h before, cycle 10 days): 50%
- Relative remission rate (Ex 125, Fluorouracil 100 + irinotecan 200 mg/kg intravenous single, compound 100 mg/kg intravenous single 24 h before, cycle 10 days): 30%
- Relative remission rate (Ex 126, Fluorouracil 100 + irinotecan 200 mg/kg intravenous single, compound 100 mg/kg intravenous single 48 h before, cycle 10 days): 0%
- Relative remission rate (Ex 127, Fluorouracil 100 + irinotecan 200 mg/kg intraperitoneal single, compound 100 mg/kg intraperitoneal single 1 h before, cycle 8 days): 40%
- Relative remission rate (Ex 128, Fluorouracil 100 + irinotecan 200 mg/kg intraperitoneal single, compound 100 mg/kg intraperitoneal single 12 h before, cycle 8 days): 30%
- Relative remission rate (Ex 129, Fluorouracil 100 + irinotecan 200 mg/kg intraperitoneal single, compound 150 mg/kg oral single 0.5 h before, cycle 8 days): 40%
- Relative remission rate (Ex 130, Fluorouracil 100 + irinotecan 200 mg/kg intraperitoneal single, compound 150 mg/kg oral single 12 h before, cycle 8 days): 40%
- Relative remission rate (Ex 131, Fluorouracil 100 + irinotecan 200 mg/kg intraperitoneal single, compound 150 mg/kg oral single 24 h before, cycle 8 days): 30%
- Relative remission rate (Ex 138, Fluorouracil 50 + oxaliplatin 5 + irinotecan 50 mg/kg intraperitoneal single, compound 100 mg/kg intraperitoneal single 0.5 h before, cycle 10 days): 50%
- Relative remission rate (Ex 139, Fluorouracil 50 + oxaliplatin 5 + irinotecan 50 mg/kg intraperitoneal single, compound 100 mg/kg intraperitoneal single 4 h before, cycle 10 days): 40%
- Relative remission rate (Ex 140, Fluorouracil 50 + oxaliplatin 5 + irinotecan 50 mg/kg intraperitoneal single, compound 100 mg/kg intraperitoneal single 8 h before, cycle 10 days): 40%
- Relative remission rate (Ex 141, Fluorouracil 50 + oxaliplatin 5 + irinotecan 50 mg/kg intraperitoneal single, compound 100 mg/kg intraperitoneal single 12 h before, cycle 10 days): 50%
- Relative remission rate (Ex 142, Fluorouracil 50 + oxaliplatin 5 + irinotecan 50 mg/kg intraperitoneal single, compound 100 mg/kg intraperitoneal single 24 h before, cycle 10 days): 50%
- Relative remission rate (Ex 143, Fluorouracil 50 + oxaliplatin 5 + irinotecan 50 mg/kg intraperitoneal single, compound 100 mg/kg intraperitoneal single 48 h before, cycle 10 days): 0%
- Relative remission rate (Ex 144, Fluorouracil 50 + oxaliplatin 5 + irinotecan 50 + tetrahydrofolic acid 90 mg/kg intravenous single, compound 100 mg/kg intravenous single 0.5 h before, cycle 10 days): 50%
- Relative remission rate (Ex 145, Fluorouracil 50 + oxaliplatin 5 + irinotecan 50 + tetrahydrofolic acid 90 mg/kg intravenous single, compound 100 mg/kg intravenous single 1 h before, cycle 10 days): 40%
- Relative remission rate (Ex 146, Fluorouracil 50 + oxaliplatin 5 + irinotecan 50 + tetrahydrofolic acid 90 mg/kg intravenous single, compound 100 mg/kg intravenous single 2 h before, cycle 10 days): 40%
- Relative remission rate (Ex 147, Fluorouracil 50 + oxaliplatin 5 + irinotecan 50 + tetrahydrofolic acid 90 mg/kg intravenous single, compound 100 mg/kg intravenous single 3 h before, cycle 10 days): 30%
- Relative remission rate (Ex 148, Fluorouracil 50 + oxaliplatin 5 + irinotecan 50 + tetrahydrofolic acid 90 mg/kg intravenous single, compound 100 mg/kg intravenous single 4 h before, cycle 10 days): 40%
- Relative remission rate (Ex 149, Fluorouracil 50 + oxaliplatin 5 + irinotecan 50 + tetrahydrofolic acid 90 mg/kg intravenous single, compound 100 mg/kg intravenous single 6 h before, cycle 10 days): 40%
- Relative remission rate (Ex 150, Fluorouracil 50 + oxaliplatin 5 + irinotecan 50 + tetrahydrofolic acid 90 mg/kg intravenous single, compound 100 mg/kg intravenous single 8 h before, cycle 10 days): 30%
- Relative remission rate (Ex 151, Fluorouracil 50 + oxaliplatin 5 + irinotecan 50 + tetrahydrofolic acid 90 mg/kg intravenous single, compound 100 mg/kg intravenous single 10 h before, cycle 10 days): 30%
- Relative remission rate (Ex 152, Fluorouracil 50 + oxaliplatin 5 + irinotecan 50 + tetrahydrofolic acid 90 mg/kg intravenous single, compound 100 mg/kg intravenous single 12 h before, cycle 10 days): 30%
- Relative remission rate (Ex 153, Fluorouracil 50 + oxaliplatin 5 + irinotecan 50 + tetrahydrofolic acid 90 mg/kg intravenous single, compound 100 mg/kg intravenous single 14 h before, cycle 10 days): 50%
- Relative remission rate (Ex 154, Fluorouracil 50 + oxaliplatin 5 + irinotecan 50 + tetrahydrofolic acid 90 mg/kg intravenous single, compound 100 mg/kg intravenous single 16 h before, cycle 10 days): 50%
- Relative remission rate (Ex 155, Fluorouracil 50 + oxaliplatin 5 + irinotecan 50 + tetrahydrofolic acid 90 mg/kg intravenous single, compound 100 mg/kg intravenous single 18 h before, cycle 10 days): 60%
- Relative remission rate (Ex 156, Fluorouracil 50 + oxaliplatin 5 + irinotecan 50 + tetrahydrofolic acid 90 mg/kg intravenous single, compound 100 mg/kg intravenous single 20 h before, cycle 10 days): 60%
- Relative remission rate (Ex 157, Fluorouracil 50 + oxaliplatin 5 + irinotecan 50 + tetrahydrofolic acid 90 mg/kg intravenous single, compound 100 mg/kg intravenous single 24 h before, cycle 10 days): 30%
- Relative remission rate (Ex 158, Fluorouracil 50 + oxaliplatin 5 + irinotecan 50 + tetrahydrofolic acid 90 mg/kg intravenous single, compound 100 mg/kg intravenous single 48 h before, cycle 10 days): 0%
- Relative remission rate (Ex 159, Fluorouracil 50 + oxaliplatin 5 + irinotecan 50 + tetrahydrofolic acid 90 mg/kg intraperitoneal single, compound 100 mg/kg intraperitoneal single 0.5 h before, cycle 7 days): 50%
- Relative remission rate (Ex 160, Fluorouracil 50 + oxaliplatin 5 + irinotecan 50 + tetrahydrofolic acid 90 mg/kg intraperitoneal single, compound 100 mg/kg intraperitoneal single 24 h before, cycle 7 days): 20%
- Relative remission rate (Ex 163, Fluorouracil 50 + oxaliplatin 5 + irinotecan 50 + tetrahydrofolic acid 90 mg/kg intraperitoneal single, compound 150 mg/kg oral single 0.5 h before, cycle 7 days): 40%
- Relative remission rate (Ex 164, Fluorouracil 50 + oxaliplatin 5 + irinotecan 50 + tetrahydrofolic acid 90 mg/kg intraperitoneal single, compound 150 mg/kg oral single 4 h before, cycle 7 days): 60%
- Relative remission rate (Ex 165, Fluorouracil 50 + oxaliplatin 5 + irinotecan 50 + tetrahydrofolic acid 90 mg/kg intraperitoneal single, compound 150 mg/kg oral single 8 h before, cycle 7 days): 80%
- Relative remission rate (Ex 166, Fluorouracil 50 + oxaliplatin 5 + irinotecan 50 + tetrahydrofolic acid 90 mg/kg intraperitoneal single, compound 150 mg/kg oral single 12 h before, cycle 7 days): 40%
- Relative remission rate (Ex 167, Fluorouracil 50 + oxaliplatin 5 + irinotecan 50 + tetrahydrofolic acid 90 mg/kg intraperitoneal single, compound 150 mg/kg oral single 24 h before, cycle 7 days): 20%
- Relative remission rate (Ex 168, Fluorouracil 50 + oxaliplatin 5 + irinotecan 50 + tetrahydrofolic acid 90 mg/kg intraperitoneal single, compound 150 mg/kg oral single 0.5 h before, cycle 7 days): 40%
- Relative remission rate (Ex 169, Fluorouracil 50 + oxaliplatin 5 + irinotecan 50 + tetrahydrofolic acid 90 mg/kg intraperitoneal single, compound 150 mg/kg oral single 4 h before, cycle 7 days): 60%
- Relative remission rate (Ex 170, Fluorouracil 50 + oxaliplatin 5 + irinotecan 50 + tetrahydrofolic acid 90 mg/kg intraperitoneal single, compound 150 mg/kg oral single 8 h before, cycle 7 days): 80%
- Relative remission rate (Ex 171, Fluorouracil 50 + oxaliplatin 5 + irinotecan 50 + tetrahydrofolic acid 90 mg/kg intraperitoneal single, compound 150 mg/kg oral single 12 h before, cycle 7 days): 40%
- Relative remission rate (Ex 172, Fluorouracil 50 + oxaliplatin 5 + irinotecan 50 + tetrahydrofolic acid 90 mg/kg intraperitoneal single, compound 150 mg/kg oral single 24 h before, cycle 7 days): 20%
- Relative remission rate (Ex 190, Fluorouracil 100 + oxaliplatin 10 + irinotecan 200 + tetrahydrofolic acid 100 mg/kg oral single, compound 100 mg/kg subcutaneous single 1 h before, cycle 7 days): 60%
- Relative remission rate (Ex 191, Fluorouracil 100 + oxaliplatin 10 + irinotecan 200 + tetrahydrofolic acid 100 mg/kg oral single, compound 100 mg/kg subcutaneous single 2 h before, cycle 7 days): 50%
- Relative remission rate (Ex 192, Fluorouracil 100 + oxaliplatin 10 + irinotecan 200 + tetrahydrofolic acid 100 mg/kg oral single, compound 100 mg/kg subcutaneous single 4 h before, cycle 7 days): 30%
- Relative remission rate (Ex 193, Fluorouracil 100 + oxaliplatin 10 + irinotecan 200 + tetrahydrofolic acid 100 mg/kg oral single, compound 100 mg/kg subcutaneous single 6 h before, cycle 7 days): 30%
- Relative remission rate (Ex 196, Gemcitabine (GEM) 120 mg/kg intraperitoneal single, compound 100 mg/kg oral single 12 h before, cycle 8 days): 50%
- diarrhea gradings compared with the chemotherapeutic agent group (administered before the chemotherapeutic agent, Table 3 and FIG. 2): relieved to different degrees
